According to paper PMC3721678 (Biochemistry, 2010):

Assays:
[1] = target: T1, Helix pomatia agglutinin (HPA) (Helix pomatia, UniProt Q2F1K8); test: SPR competition assay; format: binding; conditions: 8 µM mIgA1κ as competed analyte, 25 °C; competitive
T1 sequence (Q2F1K8 20-121): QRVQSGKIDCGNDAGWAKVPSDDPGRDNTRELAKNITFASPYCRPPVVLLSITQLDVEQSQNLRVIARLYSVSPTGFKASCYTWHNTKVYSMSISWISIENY

[2] = test system: Helix aspersa agglutinin (HAA); test: SPR competition assay; format: binding, Cornu aspersum; conditions: 8 µM mIgA1κ as competed analyte, 25 °C; competitive

Compound: CC(=O)N[C@H]1C(O)O[C@H](CO)[C@H](O)[C@@H]1O (some centres unmarked) [GalNAc]
- IC50 [1]: 220 ± 20 µM
- IC50 [2]: 81 ± 8 µM
